Key:
Assay type in all cases: functional, cell-based
[1] = Cytotoxicity against human KB-3-1 cells after 68 hrs by MTT assay; conditions: KB 3-1, 68 h
[2] = system: A549; assay: Cytotoxicity against human A549 cells after 68 hrs by MTT assay; conditions: A549, 68 h
[3] = system: NCI-H460; assay: Cytotoxicity against human H460 cells after 68 hrs by MTT assay; conditions: NCI-H460, 68 h

Row | SMILES | IC50 [1] | IC50 [2] | IC50 [3]
1 | CSc1ccc(-c2cc(NC(=O)C(Cl)Cl)cc(-c3ccc(SC)cc3)c2)cc1 | > 30 µM | 22.3 µM | > 30 µM
2 | O=C(Nc1cccc(-c2ccccc2)c1)C(Cl)Cl | 46.8 µM | 8.9 µM | 20.2 µM
3 | CCOc1ccc(-c2cc(NC(=O)C(Cl)Cl)cc(-c3ccc(OCC)cc3)c2)cc1 | 23.9 µM | 8.05 µM | 6.08 µM
4 | COc1cccc(-c2cc(NC(=O)C(Cl)Cl)cc(-c3cccc(OC)c3)c2)c1 | > 30 µM | 9.4 µM | > 30 µM
5 | O=C([O-])C(Cl)Cl.[Na+] [SODIUM DICHLOROACETATE] | 5880 µM | 4290 µM | 3890 µM
6 | COc1cc(F)cc(-c2cc(NC(=O)C(Cl)Cl)cc(-c3cc(F)cc(OC)c3)c2)c1 | 5.99 µM | 8.99 µM | 2.9 µM
7 | O=C(Nc1cccc(-c2cccc(F)c2)c1)C(Cl)Cl | > 50 µM | 9.53 µM | > 50 µM
8 | O=C(Nc1cccc(-c2ccccc2Cl)c1)C(Cl)Cl | > 50 µM | 22.6 µM | > 50 µM
9 | O=C(Nc1cccc(-c2cccc(NC(=O)C(Cl)Cl)c2)c1)C(Cl)Cl | > 50 µM | 47.9 µM | > 50 µM
10 | Cc1ccc(-c2cccc(NC(=O)C(Cl)Cl)c2)cc1 | > 50 µM | 8.3 µM | 8 µM
11 | O=C(Nc1cc(-c2ccc(OC3CCCCO3)cc2)cc(-c2ccc(OC3CCCCO3)cc2)c1)C(Cl)Cl (stereo not drawn) | 7.22 µM | 2.75 µM | 2.42 µM
12 | O=C(Nc1cccc(-c2ccc(-c3ccccc3)cc2)c1)C(Cl)Cl | > 50 µM | > 50 µM | 10.9 µM
13 | O=C(Nc1cccc(-c2ccccc2F)c1)C(Cl)Cl | 48.3 µM | 13.2 µM | 26.8 µM
14 | Cc1cccc(-c2cccc(NC(=O)C(Cl)Cl)c2)c1 | > 50 µM | 8.7 µM | 24.2 µM
15 | O=C(Nc1cccc(-c2ccoc2)c1)C(Cl)Cl | > 50 µM | 8.48 µM | 37.6 µM
16 | O=C(Nc1cc(-c2ccc3c(c2)OCO3)cc(-c2ccc3c(c2)OCO3)c1)C(Cl)Cl | 2.4 µM | 1.73 µM | 1.04 µM
17 | CSc1cccc(-c2cc(NC(=O)C(Cl)Cl)cc(-c3cccc(SC)c3)c2)c1 | > 30 µM | 15.9 µM | > 30 µM
18 | CCOc1cccc(-c2cc(NC(=O)C(Cl)Cl)cc(-c3cccc(OCC)c3)c2)c1 | 14.8 µM | 8.83 µM | 4.95 µM
19 | COC(=O)c1ccc(-c2cccc(NC(=O)C(Cl)Cl)c2)cc1 | > 50 µM | > 50 µM | > 50 µM
20 | O=C(Nc1cccc(-c2ccc(Cl)cc2)c1)C(Cl)Cl | 38.2 µM | 36.2 µM | > 50 µM
21 | CCOc1ccccc1-c1cc(NC(=O)C(Cl)Cl)cc(-c2ccccc2OCC)c1 | 8.73 µM | 7.28 µM | 5.09 µM

Row | SMILES | IC50 [1] | IC50 [2] | IC50 [3]
22 | O=C(Nc1cccc(-c2ccc(F)cc2)c1)C(Cl)Cl | 26.2 µM | 7.84 µM | > 50 µM
23 | O=C(Nc1cccc(-c2cccs2)c1)C(Cl)Cl | > 50 µM | 47.6 µM | > 50 µM
24 | Cc1ccccc1-c1cccc(NC(=O)C(Cl)Cl)c1 | 42 µM | 9.86 µM | 31.6 µM
25 | CC(C)Oc1ccc(-c2cc(NC(=O)C(Cl)Cl)cc(-c3ccc(OC(C)C)cc3)c2)cc1 | 8.85 µM | 3.82 µM | 2.86 µM
26 | COc1ccc(-c2cc(NC(=O)C(Cl)Cl)cc(-c3ccc(OC)c(F)c3)c2)cc1F | 2.94 µM | 1.95 µM | 1.76 µM
27 | CC(C)c1ccc(-c2cc(NC(=O)C(Cl)Cl)cc(-c3ccc(C(C)C)cc3)c2)cc1 | > 30 µM | 17.4 µM | 24.8 µM
28 | Nc1cccc(-c2cccc(NC(=O)C(Cl)Cl)c2)c1 | 26.1 µM | > 50 µM | > 50 µM
29 | O=C(Nc1cccc(-c2ccsc2)c1)C(Cl)Cl | > 50 µM | > 50 µM | > 50 µM
30 | COc1ccc(-c2cc(NC(=O)C(Cl)Cl)cc(-c3ccc(OC)cc3)c2)cc1 | > 30 µM | 20.8 µM | > 30 µM
31 | O=C(Nc1cccc(-c2ccccn2)c1)C(Cl)Cl | > 50 µM | > 50 µM | > 50 µM
32 | O=C(Nc1cccc(-c2nccs2)c1)C(Cl)Cl | > 50 µM | > 50 µM | > 50 µM
33 | COc1ccccc1-c1cc(NC(=O)C(Cl)Cl)cc(-c2ccccc2OC)c1 | > 30 µM | 25.5 µM | > 30 µM
34 | COc1ccc(-c2cccc(NC(=O)C(Cl)Cl)c2)cc1 | > 50 µM | 8.53 µM | 43.3 µM
35 | O=C(Nc1cccc(-c2cccc(Cl)c2)c1)C(Cl)Cl | > 50 µM | 21.4 µM | > 50 µM
36 | O=C(Nc1cccc(-c2ccccc2C(F)(F)F)c1)C(Cl)Cl | 35.9 µM | 7.5 µM | 7.55 µM
37 | O=C(Nc1cccc(-c2ccc(C(F)(F)F)cc2)c1)C(Cl)Cl | > 50 µM | 23.5 µM | 33.5 µM
38 | COc1cccc(-c2cccc(NC(=O)C(Cl)Cl)c2)c1 | 43.3 µM | 4.31 µM | 33.8 µM
39 | O=C(Nc1cccc(-c2cccc(C(F)(F)F)c2)c1)C(Cl)Cl | > 50 µM | 18.5 µM | 30.2 µM
40 | CSc1ccccc1-c1cc(NC(=O)C(Cl)Cl)cc(-c2ccccc2SC)c1 | > 30 µM | 6.51 µM | > 30 µM
41 | COc1ccccc1-c1cccc(NC(=O)C(Cl)Cl)c1 | 13.1 µM | 13.1 µM | 40.4 µM
